Experimental data as given in ChEMBL document CHEMBL1201862, “PubChem BioAssay data set” (2004).
Calls of active or inactive are those of the source.

Columns and labels:
[1] = molecular target: T1, Ubiquitin-conjugating enzyme E2 N (Homo sapiens, UniProt P61088); format: functional;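 further: Dose-response confirmation in a TR-FRET assay detecting UBC13-driven polyubiquitin chain formation, inhibition measured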
T1 sequence (P61088 whole entry): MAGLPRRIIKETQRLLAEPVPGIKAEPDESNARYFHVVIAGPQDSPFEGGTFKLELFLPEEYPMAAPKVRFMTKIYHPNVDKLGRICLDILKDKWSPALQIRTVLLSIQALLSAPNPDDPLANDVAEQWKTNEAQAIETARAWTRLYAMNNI

[2] = nonselective inhibitors of cellular cAMP signaling, dose response, counter-screen for MC4R biased antagonist project, cell-based, TR-FRET cAMP detection (AID 602305); format: functional;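 further: U2OS cells stimulated with forskolin near its EC80 as the cAMP inducer; potency is for inhibition of forskolin-stimulated cAMP signaling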
[3] = molecular target: T2, Melanocortin receptor 4 (Homo sapiens, UniProt P32245); experiment: MC4R antagonist potency on cAMP, dose response, cell-based, TR-FRET, biased antagonists (AID 602298); format: functional;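 further: antagonist potency against agonist-stimulated cAMP production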
T2 sequence (P32245 whole entry): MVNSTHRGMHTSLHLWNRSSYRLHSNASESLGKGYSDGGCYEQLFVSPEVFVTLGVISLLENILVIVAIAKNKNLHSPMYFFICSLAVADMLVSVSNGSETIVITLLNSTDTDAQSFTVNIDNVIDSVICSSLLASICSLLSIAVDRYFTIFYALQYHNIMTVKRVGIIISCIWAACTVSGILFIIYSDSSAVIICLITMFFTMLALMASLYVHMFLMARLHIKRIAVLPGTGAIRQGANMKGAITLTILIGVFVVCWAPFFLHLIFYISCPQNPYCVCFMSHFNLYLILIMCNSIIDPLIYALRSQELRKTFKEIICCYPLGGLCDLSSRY

[4] = system: Escherichia coli; experiment: microbe, parasite or virus in culture
[5] = molecular target: Low molecular weight phosphotyrosine protein phosphatase (Homo sapiens, UniProt P24666); format: functional; conditions: read-out: IC50_Mean;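 further: Dose-response confirmation assay measuring inhibition of LMPTP enzyme activity by fluorescence intensity read-out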
Low molecular weight phosphotyrosine protein phosphatase, sequence (P24666 whole entry): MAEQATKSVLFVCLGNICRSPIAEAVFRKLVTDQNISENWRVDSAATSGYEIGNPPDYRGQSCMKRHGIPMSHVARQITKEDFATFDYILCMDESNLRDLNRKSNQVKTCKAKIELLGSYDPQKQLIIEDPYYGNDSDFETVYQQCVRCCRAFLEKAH

[6] = molecular target: Prothrombin (Bos taurus, UniProt P00735); experiment: thrombin inhibition, dose response, biochemical, fluorescence polarization, uHTS hits (AID 602369); format: functional
[7] = molecular target: Large T antigen (Simian virus 40, UniProt P03070); format: functional, Betapolyomavirus macacae;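 further: Confirmatory-stage PubChem screen for compounds that inhibit SV40 T antigen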
[8] = molecular target: T3, Histone-lysine N-methyltransferase NSD2 (Homo sapiens, UniProt O96028); format: biochemical
T3 sequence (O96028 whole entry): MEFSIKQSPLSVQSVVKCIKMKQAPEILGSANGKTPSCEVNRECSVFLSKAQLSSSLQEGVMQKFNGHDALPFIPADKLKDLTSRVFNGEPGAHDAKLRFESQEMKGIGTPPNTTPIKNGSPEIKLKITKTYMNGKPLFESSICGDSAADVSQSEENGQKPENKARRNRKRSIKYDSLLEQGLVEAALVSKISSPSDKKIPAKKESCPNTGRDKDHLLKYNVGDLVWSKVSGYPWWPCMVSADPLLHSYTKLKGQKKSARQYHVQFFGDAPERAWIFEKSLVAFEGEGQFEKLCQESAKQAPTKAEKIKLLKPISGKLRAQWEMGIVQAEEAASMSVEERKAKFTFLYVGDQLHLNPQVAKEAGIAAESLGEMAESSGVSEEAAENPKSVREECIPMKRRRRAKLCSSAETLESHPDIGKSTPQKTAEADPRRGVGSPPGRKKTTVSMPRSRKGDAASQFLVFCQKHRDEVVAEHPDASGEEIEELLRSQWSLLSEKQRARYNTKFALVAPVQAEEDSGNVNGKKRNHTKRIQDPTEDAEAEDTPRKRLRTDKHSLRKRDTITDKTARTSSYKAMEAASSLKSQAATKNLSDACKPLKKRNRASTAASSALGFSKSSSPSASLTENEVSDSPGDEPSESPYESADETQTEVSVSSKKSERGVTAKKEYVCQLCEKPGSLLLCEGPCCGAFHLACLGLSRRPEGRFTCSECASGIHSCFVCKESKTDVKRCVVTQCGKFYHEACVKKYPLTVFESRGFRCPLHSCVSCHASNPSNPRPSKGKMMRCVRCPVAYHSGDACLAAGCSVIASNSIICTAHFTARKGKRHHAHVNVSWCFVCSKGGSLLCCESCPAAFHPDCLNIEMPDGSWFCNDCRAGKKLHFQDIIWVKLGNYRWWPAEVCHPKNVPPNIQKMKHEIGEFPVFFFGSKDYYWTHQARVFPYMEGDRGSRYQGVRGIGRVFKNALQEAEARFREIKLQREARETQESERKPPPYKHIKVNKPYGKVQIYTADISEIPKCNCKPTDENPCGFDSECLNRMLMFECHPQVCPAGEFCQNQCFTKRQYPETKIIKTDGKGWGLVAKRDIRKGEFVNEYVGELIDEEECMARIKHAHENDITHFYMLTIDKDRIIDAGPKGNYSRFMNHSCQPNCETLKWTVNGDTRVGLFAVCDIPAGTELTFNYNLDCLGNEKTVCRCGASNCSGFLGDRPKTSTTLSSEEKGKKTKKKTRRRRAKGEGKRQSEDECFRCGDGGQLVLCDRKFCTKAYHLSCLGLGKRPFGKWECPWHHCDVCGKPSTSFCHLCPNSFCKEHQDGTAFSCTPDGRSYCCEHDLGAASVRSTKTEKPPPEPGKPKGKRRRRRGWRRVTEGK

[9] = molecular target: 72 kDa type IV collagenase (Homo sapiens, UniProt P08253); experiment: Dose Response validation of uHTS RPN11 inhibitor hits using a MMP-2 Fluorescence assay.; format: functional
72 kDa type IV collagenase, sequence (P08253 whole entry): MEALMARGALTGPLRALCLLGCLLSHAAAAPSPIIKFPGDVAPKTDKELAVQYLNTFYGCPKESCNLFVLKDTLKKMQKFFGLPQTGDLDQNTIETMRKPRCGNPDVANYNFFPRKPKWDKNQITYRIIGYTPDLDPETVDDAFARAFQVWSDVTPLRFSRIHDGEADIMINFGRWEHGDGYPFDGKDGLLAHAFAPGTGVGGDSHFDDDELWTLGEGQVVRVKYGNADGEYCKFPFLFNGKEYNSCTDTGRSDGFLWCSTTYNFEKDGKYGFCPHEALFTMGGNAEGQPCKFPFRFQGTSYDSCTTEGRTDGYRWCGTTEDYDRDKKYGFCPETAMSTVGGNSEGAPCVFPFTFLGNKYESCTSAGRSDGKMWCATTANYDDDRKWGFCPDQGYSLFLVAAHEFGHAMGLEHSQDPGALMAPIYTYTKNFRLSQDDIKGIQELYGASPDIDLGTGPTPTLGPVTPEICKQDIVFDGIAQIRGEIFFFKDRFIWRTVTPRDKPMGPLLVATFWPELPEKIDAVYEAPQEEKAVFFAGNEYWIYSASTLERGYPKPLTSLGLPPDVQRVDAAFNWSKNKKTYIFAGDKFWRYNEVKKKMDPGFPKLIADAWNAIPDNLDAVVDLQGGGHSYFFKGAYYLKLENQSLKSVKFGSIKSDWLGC

[10] = molecular target: 26S proteasome non-ATPase regulatory subunit 14 (Homo sapiens, UniProt O00487); experiment: inhibition of proteasome subunit RPN11 – biochemical, fluorescence polarization, uHTS hits, confirmation (AID 602368); format: functional
26S proteasome non-ATPase regulatory subunit 14, sequence (O00487 whole entry): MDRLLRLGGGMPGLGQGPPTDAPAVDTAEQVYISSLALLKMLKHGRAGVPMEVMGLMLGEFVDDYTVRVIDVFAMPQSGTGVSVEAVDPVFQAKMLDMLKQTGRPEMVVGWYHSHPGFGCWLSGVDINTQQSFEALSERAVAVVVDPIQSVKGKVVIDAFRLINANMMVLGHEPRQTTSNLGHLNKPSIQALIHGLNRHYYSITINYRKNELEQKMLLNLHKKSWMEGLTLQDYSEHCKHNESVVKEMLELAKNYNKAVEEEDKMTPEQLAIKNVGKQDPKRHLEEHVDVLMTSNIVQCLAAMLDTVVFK

[11] = molecular target: Eukaryotic translation initiation factor 4E (Mus musculus, UniProt P63073); experiment: eIF4E–eIF4G protein interaction inhibitors, dose response, biochemical, TR-FRET (AID 855); format: functional;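 further: potency for disrupting eIF4E binding to eIF4GI seen as loss of FRET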
Eukaryotic translation initiation factor 4E, sequence (P63073 whole entry): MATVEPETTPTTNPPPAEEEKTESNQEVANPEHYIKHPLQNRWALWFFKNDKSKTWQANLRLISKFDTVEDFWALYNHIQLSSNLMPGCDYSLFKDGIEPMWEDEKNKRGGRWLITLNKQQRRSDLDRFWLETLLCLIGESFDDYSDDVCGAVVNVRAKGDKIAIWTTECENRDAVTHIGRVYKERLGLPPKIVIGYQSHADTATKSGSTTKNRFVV

[12] = molecular target: Induced myeloid leukemia cell differentiation protein Mcl-1 (Homo sapiens, UniProt Q07820); format: functional
[13] = molecular target: DNA (cytosine-5)-methyltransferase 1 (Homo sapiens, UniProt P26358); experiment: DNMT1 methyltransferase inhibitors, confirmation, biochemical, fluorescent molecular beacon (AID 602386); format: functional
DNA (cytosine-5)-methyltransferase 1, sequence (P26358 whole entry): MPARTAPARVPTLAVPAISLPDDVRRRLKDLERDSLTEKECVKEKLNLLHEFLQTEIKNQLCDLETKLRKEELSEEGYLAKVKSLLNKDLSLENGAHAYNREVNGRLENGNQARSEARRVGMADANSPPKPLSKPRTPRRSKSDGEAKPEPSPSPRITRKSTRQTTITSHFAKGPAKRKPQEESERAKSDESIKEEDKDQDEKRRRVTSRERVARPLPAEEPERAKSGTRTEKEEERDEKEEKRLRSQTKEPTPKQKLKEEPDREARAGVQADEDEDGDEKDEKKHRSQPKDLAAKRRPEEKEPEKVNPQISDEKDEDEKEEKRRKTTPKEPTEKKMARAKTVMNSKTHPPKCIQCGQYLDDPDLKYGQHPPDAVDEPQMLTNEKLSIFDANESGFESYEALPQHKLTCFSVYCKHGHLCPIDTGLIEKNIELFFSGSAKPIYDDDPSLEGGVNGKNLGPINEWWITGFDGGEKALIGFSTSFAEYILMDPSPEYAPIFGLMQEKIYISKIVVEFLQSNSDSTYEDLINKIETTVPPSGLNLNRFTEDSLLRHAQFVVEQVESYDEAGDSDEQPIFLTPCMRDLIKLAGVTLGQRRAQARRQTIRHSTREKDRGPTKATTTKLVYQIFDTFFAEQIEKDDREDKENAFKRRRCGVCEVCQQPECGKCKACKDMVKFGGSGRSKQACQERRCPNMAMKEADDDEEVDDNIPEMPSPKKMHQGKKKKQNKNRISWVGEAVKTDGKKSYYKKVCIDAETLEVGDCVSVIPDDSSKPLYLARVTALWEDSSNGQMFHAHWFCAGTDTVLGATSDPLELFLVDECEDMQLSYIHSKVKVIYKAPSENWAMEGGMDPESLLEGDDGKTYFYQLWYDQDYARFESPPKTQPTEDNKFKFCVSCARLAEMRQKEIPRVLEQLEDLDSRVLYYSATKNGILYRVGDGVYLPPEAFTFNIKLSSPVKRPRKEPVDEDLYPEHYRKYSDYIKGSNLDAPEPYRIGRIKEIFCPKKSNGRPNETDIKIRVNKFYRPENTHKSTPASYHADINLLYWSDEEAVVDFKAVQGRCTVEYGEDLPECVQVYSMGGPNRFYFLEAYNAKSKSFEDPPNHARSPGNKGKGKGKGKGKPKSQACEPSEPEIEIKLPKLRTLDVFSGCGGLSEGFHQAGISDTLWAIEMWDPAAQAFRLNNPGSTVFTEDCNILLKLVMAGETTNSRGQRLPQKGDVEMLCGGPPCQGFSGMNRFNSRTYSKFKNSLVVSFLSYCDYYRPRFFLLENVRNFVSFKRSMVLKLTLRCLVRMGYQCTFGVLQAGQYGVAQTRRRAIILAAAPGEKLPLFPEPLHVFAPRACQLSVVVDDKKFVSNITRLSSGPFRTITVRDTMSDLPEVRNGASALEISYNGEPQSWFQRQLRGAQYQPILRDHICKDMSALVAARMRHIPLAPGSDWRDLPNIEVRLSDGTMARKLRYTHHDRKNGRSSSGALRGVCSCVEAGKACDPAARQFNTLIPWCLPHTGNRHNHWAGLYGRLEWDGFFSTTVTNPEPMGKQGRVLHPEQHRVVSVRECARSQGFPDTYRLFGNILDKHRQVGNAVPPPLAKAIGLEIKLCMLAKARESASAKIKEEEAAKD

[14] = molecular target: Genome polyprotein (dengue virus type 2, UniProt P29990); experiment: Dengue-2 NS5 methyltransferase inhibitors, primary screen, biochemical, confirmation dose response (AID 588689); format: functional
Genome polyprotein, sequence (P29990 2492-3391 limits assumed): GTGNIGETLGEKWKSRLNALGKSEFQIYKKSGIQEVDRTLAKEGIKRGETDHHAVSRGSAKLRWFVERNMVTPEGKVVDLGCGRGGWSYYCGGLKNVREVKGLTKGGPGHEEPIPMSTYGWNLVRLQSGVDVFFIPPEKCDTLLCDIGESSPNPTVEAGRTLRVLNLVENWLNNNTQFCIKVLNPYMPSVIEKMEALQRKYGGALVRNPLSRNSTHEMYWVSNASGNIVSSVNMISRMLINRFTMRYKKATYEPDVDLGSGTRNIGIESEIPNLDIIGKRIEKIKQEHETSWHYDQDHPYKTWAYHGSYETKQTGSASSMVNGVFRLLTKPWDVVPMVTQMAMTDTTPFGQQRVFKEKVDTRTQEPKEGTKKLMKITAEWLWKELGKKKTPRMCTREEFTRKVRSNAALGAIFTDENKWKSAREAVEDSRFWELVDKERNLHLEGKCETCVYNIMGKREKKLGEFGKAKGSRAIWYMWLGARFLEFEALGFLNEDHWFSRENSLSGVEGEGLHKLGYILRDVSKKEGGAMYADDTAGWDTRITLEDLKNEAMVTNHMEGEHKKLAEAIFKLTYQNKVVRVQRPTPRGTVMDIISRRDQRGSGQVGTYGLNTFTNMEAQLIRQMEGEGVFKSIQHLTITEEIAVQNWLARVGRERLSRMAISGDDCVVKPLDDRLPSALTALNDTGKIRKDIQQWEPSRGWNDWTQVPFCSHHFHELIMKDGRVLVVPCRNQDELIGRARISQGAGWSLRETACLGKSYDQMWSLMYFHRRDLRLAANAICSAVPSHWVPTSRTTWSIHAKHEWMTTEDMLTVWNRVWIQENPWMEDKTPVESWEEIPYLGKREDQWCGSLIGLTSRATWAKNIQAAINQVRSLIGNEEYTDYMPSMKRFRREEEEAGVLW

[15] = molecular target: T2, Melanocortin receptor 4; format: functional, cell-based
[16] = molecular target: T4, Carboxy-terminal domain RNA polymerase II polypeptide A small phosphatase 1 (Homo sapiens, UniProt Q9GZU7); experiment: inhibitors of CTDSP1, concentration-response testing, biochemical assay, absorbance-based, actives from ultra-high-throughput screening (AID 540297); format: functional
T4 sequence (Q9GZU7 whole entry): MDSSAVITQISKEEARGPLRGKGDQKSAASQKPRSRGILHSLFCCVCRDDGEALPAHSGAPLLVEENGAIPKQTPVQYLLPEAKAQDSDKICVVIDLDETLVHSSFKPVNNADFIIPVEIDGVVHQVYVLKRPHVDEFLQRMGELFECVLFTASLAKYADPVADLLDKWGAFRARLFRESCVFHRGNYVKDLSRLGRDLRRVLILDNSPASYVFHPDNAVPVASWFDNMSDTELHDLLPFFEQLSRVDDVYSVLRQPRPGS

[17] = molecular target: T5, Apoptotic protease-activating factor 1 (Homo sapiens, UniProt O14727); experiment: SAR analysis of small molecule Activators of Apaf-1 in a Fluorescent assay.; format: functional; conditions: read-out: EC50_Mean;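 further: caspase-3 cleavage of fluorogenic Rh110 DEVD substrate downstream of apoptosome activation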
T5 sequence (O14727 whole entry): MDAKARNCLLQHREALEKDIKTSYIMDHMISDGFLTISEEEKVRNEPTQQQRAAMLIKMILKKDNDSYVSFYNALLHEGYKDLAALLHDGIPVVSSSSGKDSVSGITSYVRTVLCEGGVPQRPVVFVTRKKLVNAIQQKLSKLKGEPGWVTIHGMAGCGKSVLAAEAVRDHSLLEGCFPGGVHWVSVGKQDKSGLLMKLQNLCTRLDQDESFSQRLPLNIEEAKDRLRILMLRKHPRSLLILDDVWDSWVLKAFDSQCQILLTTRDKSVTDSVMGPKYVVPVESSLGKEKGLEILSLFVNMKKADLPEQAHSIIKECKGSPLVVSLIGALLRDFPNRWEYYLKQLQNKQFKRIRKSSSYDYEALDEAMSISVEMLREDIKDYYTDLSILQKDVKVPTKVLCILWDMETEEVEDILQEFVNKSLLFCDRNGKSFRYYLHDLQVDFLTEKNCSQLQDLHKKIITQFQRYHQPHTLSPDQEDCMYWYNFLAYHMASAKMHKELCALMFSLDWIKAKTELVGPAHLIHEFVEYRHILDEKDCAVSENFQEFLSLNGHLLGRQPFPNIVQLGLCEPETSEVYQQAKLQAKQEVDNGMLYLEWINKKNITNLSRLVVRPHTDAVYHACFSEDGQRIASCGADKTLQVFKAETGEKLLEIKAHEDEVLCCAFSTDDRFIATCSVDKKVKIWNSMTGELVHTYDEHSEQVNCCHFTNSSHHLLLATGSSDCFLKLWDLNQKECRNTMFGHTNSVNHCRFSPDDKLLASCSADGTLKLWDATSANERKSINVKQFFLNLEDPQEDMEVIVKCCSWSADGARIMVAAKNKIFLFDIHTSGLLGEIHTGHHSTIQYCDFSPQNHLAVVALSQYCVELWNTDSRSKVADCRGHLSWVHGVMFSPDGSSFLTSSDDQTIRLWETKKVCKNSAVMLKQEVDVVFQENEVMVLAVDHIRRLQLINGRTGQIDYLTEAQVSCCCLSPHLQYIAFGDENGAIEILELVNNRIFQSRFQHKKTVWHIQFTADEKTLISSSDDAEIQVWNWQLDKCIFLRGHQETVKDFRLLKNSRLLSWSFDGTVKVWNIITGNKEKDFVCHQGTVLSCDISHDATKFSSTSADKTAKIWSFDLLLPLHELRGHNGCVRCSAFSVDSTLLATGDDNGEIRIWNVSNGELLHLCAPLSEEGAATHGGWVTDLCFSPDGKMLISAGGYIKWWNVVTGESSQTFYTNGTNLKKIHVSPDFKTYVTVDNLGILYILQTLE

[18] = system: Streptococcus; experiment: Group A Streptococcus viability loss, dose response, counter-screen for streptokinase expression inhibitor project, luminescence, BacTiterGlo (AID 1915); format: functional, organism-based; conditions: Streptococcus;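 further: potency for reduction of bacterial viability or growth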
[19] = molecular target: T6, Streptokinase A (Streptococcus pyogenes serotype M1, UniProt P10520); experiment: S. pyogenes streptokinase expression inhibitors, potency, dose response, plasminogen activation absorbance, OD405 (AID 1914); format: functional, Streptococcus pyogenes M1 GAS;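 further: secreted streptokinase activity via plasminogen activation per viability signal from cell pellet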
T6 sequence (P10520 whole entry): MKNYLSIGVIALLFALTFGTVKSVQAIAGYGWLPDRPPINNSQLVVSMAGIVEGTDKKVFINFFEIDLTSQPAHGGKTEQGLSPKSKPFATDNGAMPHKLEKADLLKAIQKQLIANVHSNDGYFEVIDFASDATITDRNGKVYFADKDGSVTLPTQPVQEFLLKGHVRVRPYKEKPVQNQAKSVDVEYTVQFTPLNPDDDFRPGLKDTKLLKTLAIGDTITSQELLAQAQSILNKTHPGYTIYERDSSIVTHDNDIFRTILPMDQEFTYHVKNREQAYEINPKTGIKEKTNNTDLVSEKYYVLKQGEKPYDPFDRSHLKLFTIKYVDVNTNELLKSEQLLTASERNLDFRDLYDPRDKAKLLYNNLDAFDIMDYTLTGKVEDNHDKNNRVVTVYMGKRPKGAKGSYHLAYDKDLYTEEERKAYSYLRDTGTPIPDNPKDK

[20] = system: Streptococcus sp. 'group A'; experiment: growth inhibition of control SK(-) GAS strain, dose response, counter-screen for streptokinase expression inhibitor project, luminescence, kanamycin, BacTiterGlo, confirmation (AID 1900); format: functional, organism-based; conditions: Streptococcus sp. 'group A'
[21] = molecular target: Aurora kinase B (Homo sapiens, UniProt Q96GD4); format: functional
Aurora kinase B, sequence (Q96GD4 whole entry): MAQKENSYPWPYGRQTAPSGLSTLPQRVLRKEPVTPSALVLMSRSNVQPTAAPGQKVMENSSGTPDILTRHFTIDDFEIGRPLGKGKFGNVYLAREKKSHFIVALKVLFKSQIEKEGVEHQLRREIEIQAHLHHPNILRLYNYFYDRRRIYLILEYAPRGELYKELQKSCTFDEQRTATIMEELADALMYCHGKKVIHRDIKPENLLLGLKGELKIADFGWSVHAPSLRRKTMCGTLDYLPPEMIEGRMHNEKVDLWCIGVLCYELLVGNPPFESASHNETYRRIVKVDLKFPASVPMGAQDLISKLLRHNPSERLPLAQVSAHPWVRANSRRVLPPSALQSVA

[22] = molecular target: Aurora kinase A (Homo sapiens, UniProt O14965); format: functional;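 further: value from the Navigating the Kinome kinase panel profiling, panel entry STK6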
Aurora kinase A, sequence (O14965 whole entry): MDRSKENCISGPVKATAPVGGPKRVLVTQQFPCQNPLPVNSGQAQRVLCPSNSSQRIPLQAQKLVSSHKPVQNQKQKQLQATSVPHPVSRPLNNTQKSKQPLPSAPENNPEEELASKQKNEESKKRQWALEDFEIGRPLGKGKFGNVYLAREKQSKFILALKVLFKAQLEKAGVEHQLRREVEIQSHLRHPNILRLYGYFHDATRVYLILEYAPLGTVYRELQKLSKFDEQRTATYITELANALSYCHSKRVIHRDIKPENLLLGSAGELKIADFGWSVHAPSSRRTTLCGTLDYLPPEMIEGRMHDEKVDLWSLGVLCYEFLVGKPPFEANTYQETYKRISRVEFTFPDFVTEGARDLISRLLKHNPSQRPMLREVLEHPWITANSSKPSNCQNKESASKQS

Structure (SMILES): CC(C)[C@H](CN1CCC[C@H]1CN1C(N)=NC[C@H]1C(C)C)N1C[C@@H](Cc2ccccc2)N(CCCC2CCCC2)C1=N
- IC50 [1]: > 20 µM (inactive)
- IC50 [2]: > 64.5 µM (inactive)
- IC50 [3]: 17.7 µM (inactive)

Structure (SMILES): CCn1cc(C(=O)O)c(=O)c2cc(F)c(N3CCN(C(=S)NC(=O)c4ccccc4C)CC3)cc21
- AC50 [4]: 8.2 µM (active)
- IC50 [5]: 7.19 µM (active)

Structure (SMILES): O=C1NN(c2ccc(Cl)cc2)C(=O)/C1=C\c1ccc(-c2cccc(C(=O)O)c2)o1
- IC50 [6]: 19.8 µM (active)
- IC50 [7]: 27.1 µM (active)
- AC50 [8]: > 20 µM (inactive)
- IC50 [9]: 56.7 µM (active)
- IC50 [10]: 10.9 µM (active)
- IC50 [11]: 50 µM (inactive)
- IC50 [12]: 3.21 µM (active)
- IC50 [13]: 7.39 µM (active)
- IC50 [14]: 77.3 µM (active)

Structure (SMILES): O=C(CSc1ccccc1)Nc1nnc(/C=C/c2ccccc2)s1
- EC50 [15]: > 89.2 µM (inactive)

Structure (SMILES): Cc1ccc(-n2nnc3c(=O)n(CC(=O)NCc4ccccc4)cnc32)cc1
- IC50 [6]: > 100 µM (inactive)
- IC50 [16]: 5.33 µM (active)
- IC50 [9]: 12.7 µM (active)
- IC50 [10]: 24.8 µM (active)

Structure (SMILES): CC(CNc1ccccc1Cl)C(=O)O (configuration not stated)
- EC50 [17]: > 100 µM (inactive)

Structure (SMILES): COc1ccc(-c2oc3ccc(N4CCOCC4)cc3c2C#CC2(O)CCCCC2)cc1
- EC50 [18]: 8.25 µM (active)
- EC50 [19]: > 150 µM (not active)
- IC50 [2]: > 64.6 µM (inactive)
- EC50 [20]: 3.68 µM (active)
- IC50 [3]: > 64.6 µM (inactive)

Structure (SMILES): COCCOC1CCC(n2nc(-c3ccc(Nc4nc5cc(Cl)cc(C)c5o4)c(F)c3)c3c(N)ncnc32)CC1 (configuration not stated)
- Ki [21]: 0.00794 µM (active)
- Ki [22]: 0.126 µM (active)
